Values joined by “and” are separate entries in the source; they are usually repeats but may differ in a detail not shown here. Identical values can stand only once. Like-named read-outs stand apart in the source and are kept apart here.
Experiments:
[1] = tested on: hair-shaved back sites of C3H/HeN mice; assay: Telogen phase model, Test 1: hair growth at hair-shaved back sites; format: in vivo
Protocol: (§1) C3H/HeN mice (Charles River Japan (Kanagawa, Japan)) of 6 weeks old, the hair cycle of which repeatedly proceeds anagen phase, catagen phase and telogen phase in this order, were raised for a week for acclimatization. At the age of 7 weeks (the telogen phase is started at the age), hairs on the back were shaved off by an electric clipper and a shaver. After the mice were raised overnight, application of a test solution (200 μL per site) to the hair-shaved site was initiated.
(§2) In both of Test 1 and Test 2, each test solution was applied to the hair-shaved back sites of 5-12 mice per group, daily at a frequency of once a day. […] Alternatively, where needed, the hair growth effects were evaluated by calculating % hair-growth areas.
(§3) The evaluation results of Test 1 and Test 2 are shown in Table 1 and Table 2, respectively. Evaluation results were shown by scores based on the following criteria: when the hair-growth area calculated was 0% or more and less than 10%, score 1 was given; when the hair-growth area calculated was 10% or more and less than 25%, score 2 was given, when the hair-growth area calculated was 25% or more and less than 50%, score 3 was given; when the hair-growth area calculated was 50% or more and less than 75%, score 4 was given; and when the hair-growth area calculated was 75% or more, score 5 was given.

[2] = tested on: mouse skin tissue; assay: Histological examination of skin tissue, anagen phase model (Example 4); format: in vivo, C3H/HeN mice; conditions: Positive control 5% MXD; after 24 days application; n = 8
Protocol: Paraffin sections were prepared, stained with hematoxylin/eosin (HE), and microscopically observed. Hair root density and anagen phase/telogen phase ratio were evaluated.

[3] = tested on: mouse skin tissue; conditions: positive control, 5% MXD
Protocol: Specifically, the skin tissue was taken and fixed in 10% neutral buffered formalin. Paraffin sections thereof were prepared, stained with HE, and microscopically observed.

[4] = tested on: hair-shaved back sites of C3H/HeN mice; assay: Telogen phase model, Test 2: hair growth at hair-shaved back sites; format: in vivo
Protocol: as §1, §2, §3

[5] = Protocol: (§4) Each test drug was applied to hair-shaved back sites (in an amount of 200 μL per site) of 5-6 animals per group, daily at a frequency of once a day. At 10 minutes and 30 minutes after the application on Day 20, average body surface temperature (° C.) was measured. […] Body surface temperature (° C.) was measured by photographing a hair-shaved site and its periphery using an infrared thermography camera (Thermoshot F30S (NEC/Avio, Tokyo, Japan)). The average body surface temperature per area was calculated using InfRec Analyzer NS9500 Standard (NEC/Avio, Tokyo, Japan).
These animals were subjected to drawing blood from the hearts on the final week for biochemical examination. Each blood was allowed to stand still on ice for 30 minutes and centrifuged twice at 10,000 rpm for 15 minutes (at 4° C.). The supernatants (i.e., sera) were transferred to new containers and stored in a freezer (at −80° C.). The sera were analyzed using a clinical chemistry analyzer for animal (FUJI DRI-CHEM 3500V) and special slides to obtain the values of [GPT (glutamate-pyruvate transaminase), GOT (glutamate oxaloacetate transaminase), GGT (γ-glutamyl transferase), LDH (lactate dehydrogenase), CHE (cholinesterase), CPK (creatine phosphokinase), ALB (albumin), TP (total protein), TCHO (total cholesterol), and TG (triglyceride)].

[6] = Average body surface temperature by infrared thermography (Example 2); conditions: Sodium thiosulfate 10% (w/v)
Protocol: as §4

[7] = Minoxidil 1% (w/v), Day 54 after initiation of application
[8] = Minoxidil 1%, serum, final week, N=5
[9] = Sodium thiosulfate 10% (w/v), Day 69 after initiation of application
[10] = Sodium thiosulfate 10%, serum, final week, N=5

Nc1cc(N2CCCCC2)nc(N)[n+]1[O-] [Minoxidil, minoxidil, reference compound]
hair growth score ([1]; Minoxidil 1% (w/v), Day 26 after initiation of application): 0 | hair growth score ([1]; Minoxidil 1% (w/v), Day 32 after initiation of application): 0 | hair growth score ([1]; Minoxidil 1% (w/v), Day 40 after initiation of application): 0 | hair growth score ([1]; Minoxidil 1% (w/v), Day 47 after initiation of application): 0 | hair growth score [1, 7]: 0 | hair growth score ([1]; Minoxidil 1% (w/v), Day 62 after initiation of application): 0 | hair growth score ([1]; Minoxidil 1% (w/v), Day 69 after initiation of application): 0 | hair growth score ([1]; Minoxidil 1% (w/v), Day 76 after initiation of application): 0 | hair growth score ([1]; Minoxidil 1% (w/v), Day 83 after initiation of application): 0 | hair growth score ([1]; Minoxidil 1% (w/v), Day 90 after initiation of application): 0 | Anagen phase/telogen phase [2]: 0.11 ± 0.05 | Hair root density [2]: 2.04 ± 0.32 /mm | Subcutaneous tissue [2]: 38.4 ± 9 µm | tissue abnormality (HE-stained skin sections) [3]: no individuals having tissue abnormality were found | hair growth score ([4]; Minoxidil 1% (w/v), Day 27 after initiation of application): 0 | hair growth score ([4]; Minoxidil 1% (w/v), Day 34 after initiation of application): 0 | hair growth score ([4]; Minoxidil 1% (w/v), Day 41 after initiation of application): 0 | hair growth score ([4]; Minoxidil 1% (w/v), Day 48 after initiation of application): 0 | hair growth score [4, 7]: 0 | hair growth score ([4]; Minoxidil 1% (w/v), Day 61 after initiation of application): 0 | CHE [5, 8]: 16.6 ± 1.5 U/l | TG [5, 8]: 294.0 ± 44.1 mg/dL | TP [5, 8]: 4.7 ± 0.5 g/dL | ALB ([5]; mouse, in vivo): 2.2 ± 0.1 g/dL | CPK ([5]; mouse, in vivo): 321.6 ± 231.5 U/l | GGT ([5]; mouse, in vivo): 1.0 ± 0.0 U/l | GOT (AST) ([5]; mouse, in vivo): 66.8 ± 40.2 U/l | LDH ([5]; mouse, in vivo): 237.8 ± 101.6 U/l | TCHO ([5]; mouse, in vivo): 167.2 ± 19.3 mg/dL

O=S([O-])([O-])=S.[Na+].[Na+] [Sodium thiosulfate, sodium thiosulfate]
average body surface temperature ([6]; 10 minutes after the application on Day 20): 36.6 °C and 36.3 °C and 35.8 °C and 35.5 °C and 36.7 °C | average body surface temperature ([6]; 30 minutes after the application on Day 20): 37.1 °C and 36.6 °C and 37 °C and 37.2 °C | hair growth score ([1]; Sodium thiosulfate 1% (w/v), Day 26 after initiation of application): 0 | hair growth score ([1]; Sodium thiosulfate 1% (w/v), Day 32 after initiation of application): 0 | hair growth score ([1]; Sodium thiosulfate 1% (w/v), Day 40 after initiation of application): 0 | hair growth score ([1]; Sodium thiosulfate 1% (w/v), Day 47 after initiation of application): 0 | hair growth score ([1]; Sodium thiosulfate 1% (w/v), Day 54 after initiation of application): 0 | hair growth score ([1]; Sodium thiosulfate 1% (w/v), Day 62 after initiation of application): 0 | hair growth score ([1]; Sodium thiosulfate 1% (w/v), Day 69 after initiation of application): 0 | hair growth score ([1]; Sodium thiosulfate 1% (w/v), Day 76 after initiation of application): 0 | hair growth score ([1]; Sodium thiosulfate 1% (w/v), Day 83 after initiation of application): 0 | hair growth score ([1]; Sodium thiosulfate 1% (w/v), Day 90 after initiation of application): 0 | hair growth score ([1]; Sodium thiosulfate 2% (w/v), Day 26 after initiation of application): 0 | hair growth score ([1]; Sodium thiosulfate 2% (w/v), Day 32 after initiation of application): 0 | hair growth score ([1]; Sodium thiosulfate 2% (w/v), Day 40 after initiation of application): 0 | hair growth score ([1]; Sodium thiosulfate 2% (w/v), Day 47 after initiation of application): 0 | hair growth score ([1]; Sodium thiosulfate 2% (w/v), Day 54 after initiation of application): 0 | hair growth score ([1]; Sodium thiosulfate 2% (w/v), Day 62 after initiation of application): 0 | hair growth score ([1]; Sodium thiosulfate 2% (w/v), Day 69 after initiation of application): 0 | hair growth score ([1]; Sodium thiosulfate 2% (w/v), Day 76 after initiation of application): 0 | hair growth score ([1]; Sodium thiosulfate 2% (w/v), Day 83 after initiation of application): 0 | hair growth score ([1]; Sodium thiosulfate 2% (w/v), Day 90 after initiation of application): 0 | hair growth score ([1]; Sodium thiosulfate 2% (w/v), Day 97 after initiation of application): 0 | hair growth score ([1]; Sodium thiosulfate 4% (w/v), Day 26 after initiation of application): 0 | hair growth score ([1]; Sodium thiosulfate 4% (w/v), Day 32 after initiation of application): 0 | hair growth score ([1]; Sodium thiosulfate 4% (w/v), Day 40 after initiation of application): 0 | hair growth score ([1]; Sodium thiosulfate 4% (w/v), Day 47 after initiation of application): 0 | hair growth score ([1]; Sodium thiosulfate 4% (w/v), Day 54 after initiation of application): 0 | hair growth score ([1]; Sodium thiosulfate 10% (w/v), Day 26 after initiation of application): 0 | hair growth score ([1]; Sodium thiosulfate 10% (w/v), Day 32 after initiation of application): 0 | hair growth score ([1]; Sodium thiosulfate 10% (w/v), Day 40 after initiation of application): 0 | hair growth score [1, 9]: 2 (when the hair-growth area calculated was 10% or more and less than 25%, score 2 was given) and 3 (when the hair-growth area calculated was 25% or more and less than 50%, score 3 was given) | time point when hairs start growing (Kaplan-Meier curves) ([1]; as the concentration of sodium thiosulfate increases, Tests 1 and 2, FIGS. 2 and 3): new hairs tend to start growing from the earlier stage | start of new hair growth and hair-growth area compared to the negative control ([1]; sodium thiosulfate alone, 4% (w/v) or more): started growing at early stage after the application | hair growth score ([4]; Sodium thiosulfate 10% (w/v), Day 27 after initiation of application): 0 | hair growth score ([4]; Sodium thiosulfate 10% (w/v), Day 34 after initiation of application): 0 | hair growth score [4, 9]: 2 (when the hair-growth area calculated was 10% or more and less than 25%, score 2 was given) and 4 (when the hair-growth area calculated was 50% or more and less than 75%, score 4 was given) and 3 (when the hair-growth area calculated was 25% or more and less than 50%, score 3 was given) | hair growth score ([4]; Sodium thiosulfate 10% (w/v), Day 90 after initiation of application): 3 (when the hair-growth area calculated was 25% or more and less than 50%, score 3 was given) and 5 (when the hair-growth area calculated was 75% or more, score 5 was given) and 4 (when the hair-growth area calculated was 50% or more and less than 75%, score 4 was given) | ALB [5, 10]: 2.2 ± 0.1 g/dL | CHE [5, 10]: 19.8 ± 3.1 U/l | CPK [5, 10]: 608.4 ± 642.5 U/l | GGT [5, 10]: 1.0 ± 0.0 U/l | GOT (AST) [5, 10]: 83.2 ± 46.3 U/l | GPT (ALT) [5, 10]: 20.8 ± 2.3 U/l | LDH [5, 10]: 277.4 ± 142.6 U/l | TCHO [5, 10]: 155.0 ± 10.1 mg/dL | TG [5, 10]: 296.8 ± 95.5 mg/dL | TP [5, 10]: 4.8 ± 0.3 g/dL
